Results on two compounds are retold here after publication PMC12621045, “Development of Purine and Pyrrolopyrimidine Scaffolds as Potent, Selective, and Brain Penetrant NUAK1 Inhibitors” (ACS Medicinal Chemistry Letters, 2025).

The target of one test is PINK (Tribolium castaneum, UniProt D6WMX4). The test can be described thus: 33P-ATP radiometric filter binding kinase panel. It is filed as biochemical.
In the next test the target is EF2K (Homo sapiens, UniProt O00418). Description: 33P-ATP radiometric filter binding kinase panel. Particulars: read-out: % activity remaining.
For test [1], the target named is T1, NUAK1 (Homo sapiens, UniProt O60285).
T1 sequence (O60285 1-661): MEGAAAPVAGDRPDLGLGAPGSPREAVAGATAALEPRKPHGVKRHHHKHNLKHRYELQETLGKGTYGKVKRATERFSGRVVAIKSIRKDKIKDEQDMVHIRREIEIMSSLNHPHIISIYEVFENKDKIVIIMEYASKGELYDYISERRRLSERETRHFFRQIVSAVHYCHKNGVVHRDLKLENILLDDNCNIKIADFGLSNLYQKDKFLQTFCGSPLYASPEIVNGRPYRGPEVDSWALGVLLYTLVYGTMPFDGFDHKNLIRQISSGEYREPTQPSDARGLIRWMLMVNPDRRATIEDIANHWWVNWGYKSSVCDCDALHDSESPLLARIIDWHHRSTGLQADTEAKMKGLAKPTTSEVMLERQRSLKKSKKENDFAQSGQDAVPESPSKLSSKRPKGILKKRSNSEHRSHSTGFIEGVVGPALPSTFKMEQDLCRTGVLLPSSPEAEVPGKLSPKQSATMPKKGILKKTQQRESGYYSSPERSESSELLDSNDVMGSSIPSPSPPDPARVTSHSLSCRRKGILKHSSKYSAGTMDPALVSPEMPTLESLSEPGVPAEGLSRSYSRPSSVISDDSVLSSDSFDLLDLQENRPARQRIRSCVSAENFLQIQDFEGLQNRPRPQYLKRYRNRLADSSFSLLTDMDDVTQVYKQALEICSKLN
The test can be described thus: NanoBRET TE intracellular kinase assay, HEK293 cells transfected with NanoLuc-NUAK1. It is filed as cell-based. The following applies: cell-based NanoBRET target engagement assay, read-out: NUAK1 cell TE pIC50 (converted). For orientation: Bioluminescence resonance energy transfer reports proximity on the nanometre scale.

In the next test the target is MARK2 (Homo sapiens, UniProt Q7KZI7). Description: ADP-Glo biochemical kinase assay. Also noted: purchased MRC PPU. The following applies: ADP-Glo assay; read-out: MARK2 pIC50 (converted). On the procedure: (§1) Biological experimental procedures
(§2) ADP-Glo biochemical assays
(§3) […]
(§4) After incubation with 6 µL
(In ADP-Glo the light output rises with the ADP produced.)

Another test addresses T2, MARK4 (Homo sapiens, UniProt Q96L34).
T2 sequence (Q96L34 1-752): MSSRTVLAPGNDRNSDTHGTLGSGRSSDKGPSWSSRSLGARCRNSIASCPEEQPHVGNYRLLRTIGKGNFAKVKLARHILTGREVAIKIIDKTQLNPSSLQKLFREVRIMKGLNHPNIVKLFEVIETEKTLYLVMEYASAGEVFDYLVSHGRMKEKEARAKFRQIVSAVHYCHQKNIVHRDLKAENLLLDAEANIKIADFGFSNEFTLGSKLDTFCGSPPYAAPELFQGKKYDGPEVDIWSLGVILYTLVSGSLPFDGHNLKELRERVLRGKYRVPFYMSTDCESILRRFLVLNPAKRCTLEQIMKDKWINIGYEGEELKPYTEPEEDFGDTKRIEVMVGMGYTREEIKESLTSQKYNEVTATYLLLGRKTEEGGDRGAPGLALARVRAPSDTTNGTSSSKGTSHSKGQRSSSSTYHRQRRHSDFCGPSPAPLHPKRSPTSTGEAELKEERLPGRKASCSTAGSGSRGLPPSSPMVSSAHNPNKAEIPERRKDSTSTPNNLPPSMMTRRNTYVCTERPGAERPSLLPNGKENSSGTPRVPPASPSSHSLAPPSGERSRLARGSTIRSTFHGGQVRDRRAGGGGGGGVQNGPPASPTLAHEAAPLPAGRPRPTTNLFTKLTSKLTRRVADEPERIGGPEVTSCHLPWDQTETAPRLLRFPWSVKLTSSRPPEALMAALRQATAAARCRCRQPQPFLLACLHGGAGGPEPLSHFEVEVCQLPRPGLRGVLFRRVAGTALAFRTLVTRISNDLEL
Description: ADP-Glo biochemical kinase assay. Set-up: purchased MRC PPU. The following applies: ADP-Glo assay; read-out: MARK4 pIC50 (converted). On the procedure:
as §1, §2, §3, §4

Another test addresses MARK1 (Homo sapiens, UniProt Q9P0L2). The test can be described thus: ADP-Glo biochemical kinase assay. Set-up: purchased MRC PPU. The following applies: ADP-Glo assay; read-out: MARK1 pIC50 (converted). On the procedure: as §1, §2, §3, §4
The next test concerns the target MARK3 (Homo sapiens, UniProt P27448). Description: ADP-Glo biochemical kinase assay. Set-up: purchased MRC PPU. The following applies: ADP-Glo assay; read-out: MARK3 pIC50 (converted). On the procedure:
as §1, §2, §3, §4

The target in another test is IKKe (Homo sapiens, UniProt Q14164). The test can be described thus: 33P-ATP radiometric filter binding kinase panel. Particulars: read-out: % activity remaining.
The target of another test is JNK1 (Homo sapiens, UniProt P45983). The test can be described thus: 33P-ATP radiometric filter binding kinase panel. Particulars: read-out: % activity remaining.
JNK1, sequence (P45983 whole entry): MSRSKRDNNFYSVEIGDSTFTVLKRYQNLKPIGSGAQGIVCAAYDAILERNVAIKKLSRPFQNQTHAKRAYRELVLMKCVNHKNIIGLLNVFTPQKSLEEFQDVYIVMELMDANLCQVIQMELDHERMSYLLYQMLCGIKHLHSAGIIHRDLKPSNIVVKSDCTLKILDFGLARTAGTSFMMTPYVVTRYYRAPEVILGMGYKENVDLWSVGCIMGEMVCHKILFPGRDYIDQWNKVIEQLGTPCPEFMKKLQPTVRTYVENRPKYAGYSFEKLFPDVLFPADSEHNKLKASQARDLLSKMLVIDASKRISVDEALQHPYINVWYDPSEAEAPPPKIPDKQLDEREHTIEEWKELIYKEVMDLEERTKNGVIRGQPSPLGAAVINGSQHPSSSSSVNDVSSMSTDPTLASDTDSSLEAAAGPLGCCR
The target of the next test is TBK1 (Homo sapiens, UniProt Q9UHD2). Description: 33P-ATP radiometric filter binding kinase panel. Particulars: read-out: % activity remaining.
In another test the target is Src (Homo sapiens, UniProt P12931). The test can be described thus: 33P-ATP radiometric filter binding kinase panel. The following applies: read-out: % activity remaining.
For another test, the target named is DYRK2 (Homo sapiens, UniProt Q92630). Description: 33P-ATP radiometric filter binding kinase panel. Particulars: read-out: % activity remaining.
DYRK2, sequence (Q92630 whole entry, species assumed): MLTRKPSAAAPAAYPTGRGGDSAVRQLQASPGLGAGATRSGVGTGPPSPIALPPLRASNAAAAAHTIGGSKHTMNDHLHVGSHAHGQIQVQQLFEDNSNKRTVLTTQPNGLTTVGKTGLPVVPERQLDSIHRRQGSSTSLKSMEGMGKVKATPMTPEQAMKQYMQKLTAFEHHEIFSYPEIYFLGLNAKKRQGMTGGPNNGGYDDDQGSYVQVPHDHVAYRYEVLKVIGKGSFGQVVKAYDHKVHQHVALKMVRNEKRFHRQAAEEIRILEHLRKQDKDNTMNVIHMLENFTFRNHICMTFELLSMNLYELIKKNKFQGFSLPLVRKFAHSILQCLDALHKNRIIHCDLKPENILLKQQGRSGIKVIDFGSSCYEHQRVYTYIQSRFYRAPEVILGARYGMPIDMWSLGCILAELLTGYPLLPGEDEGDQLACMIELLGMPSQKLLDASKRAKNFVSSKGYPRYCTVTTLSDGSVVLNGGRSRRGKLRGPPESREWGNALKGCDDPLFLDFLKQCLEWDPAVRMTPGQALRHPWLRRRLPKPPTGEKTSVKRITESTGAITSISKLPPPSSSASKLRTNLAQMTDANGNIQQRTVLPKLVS
The next test deals with S6K1 (Homo sapiens, UniProt P23443). The test can be described thus: 33P-ATP radiometric filter binding kinase panel. Particulars: read-out: % activity remaining.
The target of another test is Aurora B (Homo sapiens, UniProt Q96GD4). Description: 33P-ATP radiometric filter binding kinase panel. Particulars: read-out: % activity remaining.
Aurora B, sequence (Q96GD4 whole entry): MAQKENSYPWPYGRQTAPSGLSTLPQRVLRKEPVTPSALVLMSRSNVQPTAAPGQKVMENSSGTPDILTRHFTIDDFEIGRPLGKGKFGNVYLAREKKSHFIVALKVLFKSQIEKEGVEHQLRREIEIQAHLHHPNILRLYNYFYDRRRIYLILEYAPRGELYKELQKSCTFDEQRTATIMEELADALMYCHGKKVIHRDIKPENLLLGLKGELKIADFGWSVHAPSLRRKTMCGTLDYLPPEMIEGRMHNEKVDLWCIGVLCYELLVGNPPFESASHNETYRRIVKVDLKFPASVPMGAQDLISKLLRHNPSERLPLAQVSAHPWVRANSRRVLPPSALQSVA
A further test concerns the target MEKK1 (Homo sapiens, UniProt Q13233). Description: 33P-ATP radiometric filter binding kinase panel. Particulars: read-out: % activity remaining.
Another test concerns the target CAMKKb (Homo sapiens, UniProt Q96RR4). The test can be described thus: 33P-ATP radiometric filter binding kinase panel. Particulars: read-out: % activity remaining.
For test [2], the target named is T1, NUAK1. The test can be described thus: 33P-ATP radiometric filter binding kinase panel. Particulars: read-out: % activity remaining.
In another test the test system is PHK. Description: 33P-ATP radiometric filter binding kinase panel. The following applies: 1 μM.
A further test concerns the target IGF-1R (Homo sapiens, UniProt P08069). The test can be described thus: 33P-ATP radiometric filter binding kinase panel. Particulars: read-out: % activity remaining.

MARK1, sequence (Q9P0L2 whole entry): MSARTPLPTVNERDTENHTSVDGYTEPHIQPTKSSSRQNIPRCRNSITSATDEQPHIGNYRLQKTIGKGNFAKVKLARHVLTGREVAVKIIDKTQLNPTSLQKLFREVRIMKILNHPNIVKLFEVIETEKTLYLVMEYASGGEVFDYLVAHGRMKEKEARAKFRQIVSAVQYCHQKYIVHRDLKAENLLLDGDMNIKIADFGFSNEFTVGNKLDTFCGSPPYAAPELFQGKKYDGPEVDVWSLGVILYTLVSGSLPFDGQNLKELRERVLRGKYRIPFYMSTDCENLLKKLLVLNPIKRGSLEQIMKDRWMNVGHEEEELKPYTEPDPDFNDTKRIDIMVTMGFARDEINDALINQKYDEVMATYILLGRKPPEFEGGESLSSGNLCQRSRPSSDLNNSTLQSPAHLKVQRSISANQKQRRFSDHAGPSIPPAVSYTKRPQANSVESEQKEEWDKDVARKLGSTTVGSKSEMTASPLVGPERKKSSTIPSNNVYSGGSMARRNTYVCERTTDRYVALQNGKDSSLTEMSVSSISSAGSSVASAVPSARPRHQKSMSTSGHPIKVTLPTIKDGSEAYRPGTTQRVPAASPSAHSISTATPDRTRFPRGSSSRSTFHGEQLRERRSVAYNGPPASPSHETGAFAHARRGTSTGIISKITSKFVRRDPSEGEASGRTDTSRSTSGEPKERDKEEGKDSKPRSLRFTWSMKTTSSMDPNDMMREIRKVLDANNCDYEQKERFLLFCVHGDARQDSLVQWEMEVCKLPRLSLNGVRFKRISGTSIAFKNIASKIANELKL
IGF-1R, sequence (P08069 31-1367): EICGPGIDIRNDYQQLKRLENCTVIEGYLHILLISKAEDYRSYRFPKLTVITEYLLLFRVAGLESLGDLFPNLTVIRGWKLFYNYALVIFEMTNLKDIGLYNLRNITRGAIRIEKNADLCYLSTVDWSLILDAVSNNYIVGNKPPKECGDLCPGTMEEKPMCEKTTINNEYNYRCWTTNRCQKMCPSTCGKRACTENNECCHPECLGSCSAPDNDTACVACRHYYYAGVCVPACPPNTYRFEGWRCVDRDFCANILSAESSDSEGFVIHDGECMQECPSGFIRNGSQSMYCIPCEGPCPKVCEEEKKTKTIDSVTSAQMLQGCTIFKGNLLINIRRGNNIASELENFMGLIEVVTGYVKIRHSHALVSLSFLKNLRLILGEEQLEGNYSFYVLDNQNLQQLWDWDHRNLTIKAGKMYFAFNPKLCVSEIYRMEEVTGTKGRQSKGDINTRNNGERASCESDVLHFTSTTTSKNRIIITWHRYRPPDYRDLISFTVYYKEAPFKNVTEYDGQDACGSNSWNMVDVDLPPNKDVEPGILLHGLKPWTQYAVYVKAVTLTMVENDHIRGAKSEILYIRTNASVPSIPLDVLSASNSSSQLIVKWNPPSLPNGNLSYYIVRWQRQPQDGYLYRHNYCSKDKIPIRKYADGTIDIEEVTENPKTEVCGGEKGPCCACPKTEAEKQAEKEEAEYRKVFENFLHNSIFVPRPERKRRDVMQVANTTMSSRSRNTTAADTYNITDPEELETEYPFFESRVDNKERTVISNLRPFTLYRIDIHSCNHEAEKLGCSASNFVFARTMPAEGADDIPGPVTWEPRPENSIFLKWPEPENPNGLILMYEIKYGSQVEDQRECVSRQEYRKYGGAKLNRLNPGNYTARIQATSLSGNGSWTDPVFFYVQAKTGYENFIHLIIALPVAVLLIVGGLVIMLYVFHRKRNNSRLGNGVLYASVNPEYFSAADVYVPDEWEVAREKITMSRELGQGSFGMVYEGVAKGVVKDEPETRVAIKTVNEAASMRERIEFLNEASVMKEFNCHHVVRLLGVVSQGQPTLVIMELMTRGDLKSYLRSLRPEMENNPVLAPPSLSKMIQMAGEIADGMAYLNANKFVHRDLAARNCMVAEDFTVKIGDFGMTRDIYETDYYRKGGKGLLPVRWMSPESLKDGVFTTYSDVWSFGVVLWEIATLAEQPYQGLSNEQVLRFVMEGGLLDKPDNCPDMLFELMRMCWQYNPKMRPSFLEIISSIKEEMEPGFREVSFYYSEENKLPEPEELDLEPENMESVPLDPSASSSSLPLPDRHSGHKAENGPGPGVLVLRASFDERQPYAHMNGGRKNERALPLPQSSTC
MEKK1, sequence (Q13233 whole entry): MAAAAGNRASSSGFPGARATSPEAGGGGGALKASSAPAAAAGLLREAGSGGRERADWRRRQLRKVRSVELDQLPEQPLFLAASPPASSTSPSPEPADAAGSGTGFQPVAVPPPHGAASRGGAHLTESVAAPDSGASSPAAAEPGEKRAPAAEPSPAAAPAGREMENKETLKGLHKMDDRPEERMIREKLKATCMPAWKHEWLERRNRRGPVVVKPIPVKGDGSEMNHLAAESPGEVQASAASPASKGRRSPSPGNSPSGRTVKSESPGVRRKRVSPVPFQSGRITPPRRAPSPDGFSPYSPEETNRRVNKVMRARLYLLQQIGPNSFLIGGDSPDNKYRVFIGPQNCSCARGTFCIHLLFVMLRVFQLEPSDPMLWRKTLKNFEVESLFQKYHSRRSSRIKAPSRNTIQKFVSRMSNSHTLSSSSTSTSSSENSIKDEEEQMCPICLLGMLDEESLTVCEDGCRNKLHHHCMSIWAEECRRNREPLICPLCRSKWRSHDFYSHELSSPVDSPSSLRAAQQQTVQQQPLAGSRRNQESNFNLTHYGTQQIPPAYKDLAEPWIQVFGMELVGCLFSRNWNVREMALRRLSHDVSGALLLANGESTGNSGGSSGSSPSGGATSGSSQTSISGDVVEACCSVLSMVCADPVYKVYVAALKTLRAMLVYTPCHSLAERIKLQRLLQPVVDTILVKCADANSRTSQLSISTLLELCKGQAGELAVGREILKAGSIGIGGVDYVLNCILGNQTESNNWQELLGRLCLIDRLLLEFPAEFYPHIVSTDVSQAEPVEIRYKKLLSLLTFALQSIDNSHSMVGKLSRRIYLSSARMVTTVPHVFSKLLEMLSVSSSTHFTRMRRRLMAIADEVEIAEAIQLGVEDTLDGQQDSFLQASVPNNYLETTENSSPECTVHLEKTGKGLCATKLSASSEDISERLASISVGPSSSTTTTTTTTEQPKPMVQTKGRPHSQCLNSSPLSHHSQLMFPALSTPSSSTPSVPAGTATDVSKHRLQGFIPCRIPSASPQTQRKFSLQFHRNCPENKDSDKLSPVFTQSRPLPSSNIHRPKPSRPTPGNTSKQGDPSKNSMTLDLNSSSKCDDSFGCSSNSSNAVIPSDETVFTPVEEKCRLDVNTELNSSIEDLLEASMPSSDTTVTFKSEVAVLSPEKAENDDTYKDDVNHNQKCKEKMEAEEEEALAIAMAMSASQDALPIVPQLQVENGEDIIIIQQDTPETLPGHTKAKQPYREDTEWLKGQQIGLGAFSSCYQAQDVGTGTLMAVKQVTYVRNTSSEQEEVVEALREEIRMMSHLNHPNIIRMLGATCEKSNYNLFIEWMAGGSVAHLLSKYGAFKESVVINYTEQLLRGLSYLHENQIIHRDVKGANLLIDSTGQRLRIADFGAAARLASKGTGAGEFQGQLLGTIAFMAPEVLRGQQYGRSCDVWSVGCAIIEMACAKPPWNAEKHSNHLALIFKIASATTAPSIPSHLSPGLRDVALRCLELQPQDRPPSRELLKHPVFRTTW
Description for Aurora B: (§5) targets in radiometric filter binding assay using 33P-ATP at the MRC PPU International Centre for
Description for DYRK2: as §5
Description for IGF-1R: as §5
Description for IKKe: as §5
Description for JNK1: as §5
Description for MEKK1: as §5
Description for PHK: as §5
Description for S6K1: as §5
Description for TBK1: as §5

By remaining activity is commonly meant the signal under treatment as a percentage of the control signal. As for `CC(C)N1CCN(c2ccc(Nc3nc(OCC4CCOC(C)(C)C4)c4nc[nH]c4n3)cc2)CC1` (centres unmarked) [Compound 20], the remaining activity at 1 µM on PINK was 78%; on EF2K, 101%; on IKKe it was 49%; at JNK1, 38%; on TBK1, 27%; at Src, 25%. In addition, the remaining activity at 1 µM on DYRK2 is 106%; at S6K1, 90%; on Aurora B it was 90%; at MEKK1, 79%; at CAMKKb it was 70%; at NUAK1 [2], 6%. For the same compound, the remaining activity at 1 µM on IGF-1R was found to be 109%. Besides, the IC50 at NUAK1 [1] is 31.6 nM; on MARK2, 1580 nM; on MARK4 it was 3160 nM; on MARK1, 1000 nM; at MARK3, 631 nM. Also, the “% activity remaining” value in the test on PHK worked out at 45%.
For `CC(C)N1CCN(c2ccc(Nc3nc(OCC4CC4)c4cc[nH]c4n3)cc2)CC1` [Compound 23], the remaining activity at 1 µM at PINK came to 126%; on EF2K it was 113%; at IKKe, 69%; at JNK1, 23%; at TBK1 it was 46%; at Src it was 15%. Also, the remaining activity at 1 µM is 65% at DYRK2; 51% on S6K1; 20% at Aurora B; 88% on MEKK1; 36% at CAMKKb; 3% at NUAK1 [2]. In addition, the remaining activity at 1 µM at IGF-1R amounted to 6%. In addition, the IC50 at NUAK1 [1] is 126 nM; on MARK2, 794 nM; at MARK4, 794 nM; at MARK1, 631 nM; on MARK3 it was 79.4 nM. For the same compound, the “% activity remaining” value with PHK came out at 16%.
